Data published in ChEMBL document CHEMBL4052759, “Discovery of DS79182026: A potent orally active hepcidin production inhibitor” (Bioorg Med Chem Lett, 2017).
Values belong to the molecule of their own block, whether it stands above or below them.

How the values were obtained:
[1] = biological target: Serine/threonine-protein kinase Chk2 (Homo sapiens) (UniProt O96017); assay: Inhibition of CHK2 (unknown origin) at 0.078 uM relative to control
[2] = biological target: T1, Interleukin-1 receptor-associated kinase 4 (Homo sapiens) (UniProt Q9NWZ3); assay: Inhibition of IRAK4 (unknown origin) at 0.078 uM relative to control
T1 sequence (whole entry): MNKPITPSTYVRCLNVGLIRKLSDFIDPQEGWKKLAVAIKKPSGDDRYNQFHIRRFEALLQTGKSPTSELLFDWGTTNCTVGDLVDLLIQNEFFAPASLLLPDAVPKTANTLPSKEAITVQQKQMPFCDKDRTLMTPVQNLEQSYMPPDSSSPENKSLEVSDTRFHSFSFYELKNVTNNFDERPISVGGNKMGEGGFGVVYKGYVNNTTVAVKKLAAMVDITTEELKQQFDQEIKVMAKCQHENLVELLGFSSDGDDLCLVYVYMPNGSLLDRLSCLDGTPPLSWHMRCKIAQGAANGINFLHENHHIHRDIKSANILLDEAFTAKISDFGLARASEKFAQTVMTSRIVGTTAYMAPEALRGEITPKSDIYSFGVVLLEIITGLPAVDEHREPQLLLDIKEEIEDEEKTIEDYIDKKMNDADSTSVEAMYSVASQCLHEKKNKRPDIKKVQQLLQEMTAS

[3] = biological target: T2, Protein kinase C zeta type (Homo sapiens) (UniProt Q05513); assay: Inhibition of PKC-zeta (unknown origin) at 0.078 uM relative to control
T2 sequence (whole entry): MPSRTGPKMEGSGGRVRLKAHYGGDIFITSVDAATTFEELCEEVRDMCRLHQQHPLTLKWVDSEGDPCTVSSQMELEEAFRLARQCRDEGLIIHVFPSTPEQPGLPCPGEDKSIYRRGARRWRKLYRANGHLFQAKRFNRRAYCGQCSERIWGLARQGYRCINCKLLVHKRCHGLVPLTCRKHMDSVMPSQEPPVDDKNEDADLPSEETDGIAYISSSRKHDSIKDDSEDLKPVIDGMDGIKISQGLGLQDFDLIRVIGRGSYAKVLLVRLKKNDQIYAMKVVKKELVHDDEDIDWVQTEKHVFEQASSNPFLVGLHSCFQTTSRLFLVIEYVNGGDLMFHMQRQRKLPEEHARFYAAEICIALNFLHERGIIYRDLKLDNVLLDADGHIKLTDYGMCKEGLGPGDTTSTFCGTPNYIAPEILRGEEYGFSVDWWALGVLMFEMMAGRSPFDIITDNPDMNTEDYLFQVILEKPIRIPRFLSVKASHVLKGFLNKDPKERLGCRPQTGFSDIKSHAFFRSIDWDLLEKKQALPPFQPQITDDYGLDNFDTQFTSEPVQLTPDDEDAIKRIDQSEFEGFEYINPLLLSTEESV

[4] = biological target: Tyrosine-protein kinase Fyn (Homo sapiens) (UniProt P06241); assay: Inhibition of FYN (unknown origin) at 0.078 uM relative to control
[5] = biological target: Serine/threonine-protein kinase MARK1 (Homo sapiens) (UniProt Q9P0L2); assay: Inhibition of MARK1 (unknown origin) at 0.078 uM relative to control
[6] = biological target: Casein kinase I isoform alpha (Homo sapiens) (UniProt P48729); assay: Inhibition of CSNK1A1 (unknown origin) at 0.45 uM relative to control
[7] = biological target: Aurora kinase C (Homo sapiens) (UniProt Q9UQB9); assay: Inhibition of AurC (unknown origin) at 0.45 uM relative to control
[8] = biological target: Protein kinase C gamma type (Homo sapiens) (UniProt P05129); assay: Inhibition of PKC-gamma (unknown origin) at 0.45 uM relative to control
[9] = biological target: Ephrin type-A receptor 2 (Homo sapiens) (UniProt P29317); assay: Inhibition of EPHA2 (unknown origin) at 0.45 uM relative to control
[10] = biological target: CDK6/cyclin D3 (Homo sapiens) (UniProt P30281+Q00534); assay: Inhibition of CDK6/CyclinD3 (unknown origin) at 0.45 uM relative to control; format: protein-complex assay
[11] = biological target: Protein kinase C theta type (Homo sapiens) (UniProt Q04759); assay: Inhibition of PKC-theta (unknown origin) at 0.45 uM relative to control
[12] = biological target: Homeodomain-interacting protein kinase 4 (Homo sapiens) (UniProt Q8NE63); assay: Inhibition of HIPK4 (unknown origin) at 0.45 uM relative to control
[13] = biological target: Dual specificity tyrosine-phosphorylation-regulated kinase 2 (Homo sapiens) (UniProt Q92630); assay: Inhibition of DYRK2 (unknown origin) at 0.45 uM relative to control
[14] = biological target: Ephrin type-B receptor 3 (Homo sapiens) (UniProt P54753); assay: Inhibition of EPHB3 (unknown origin) at 0.45 uM relative to control
[15] = biological target: Casein kinase I isoform gamma-1 (Homo sapiens) (UniProt Q9HCP0); assay: Inhibition of CK1-gamma1 (unknown origin) at 0.49 uM relative to control
[16] = biological target: Protein kinase C iota type (Homo sapiens) (UniProt P41743); assay: Inhibition of PKC-iota (unknown origin) at 0.49 uM relative to control
[17] = biological target: SRSF protein kinase 2 (Homo sapiens) (UniProt P78362); assay: Inhibition of SRPK2 (unknown origin) at 0.49 uM relative to control
[18] = biological target: Serine/threonine-protein kinase 4 (Homo sapiens) (UniProt Q13043); assay: Inhibition of MST1 (unknown origin) at 0.49 uM relative to control
[19] = biological target: BDNF/NT-3 growth factors receptor (Homo sapiens) (UniProt Q16620); assay: Inhibition of NTRK2 (unknown origin) at 0.49 uM relative to control
Homo sapiens = species: Homo sapiens; assay: Inhibition of p70S6K (unknown origin) at 0.49 uM relative to control
[20] = system: Epidermal growth factor receptor (Homo sapiens), P00533 [L858R,T790M]; assay: Inhibition of EGFR T790M/L858R double mutant (unknown origin) at 0.49 uM relative to control
[21] = biological target: Maternal embryonic leucine zipper kinase (Homo sapiens) (UniProt Q14680); assay: Inhibition of MELK (unknown origin) at 0.49 uM relative to control
[22] = biological target: Protein kinase C theta type (Homo sapiens) (UniProt Q04759); assay: Inhibition of PKC-theta (unknown origin) at 0.49 uM relative to control
[23] = biological target: Serine/threonine-protein kinase DCLK1 (Homo sapiens) (UniProt O15075); assay: Inhibition of DCAMKL1 (unknown origin) at 0.49 uM relative to control
[24] = biological target: Serine/threonine-protein kinase MARK2 (Homo sapiens) (UniProt Q7KZI7); assay: Inhibition of MARK2 (unknown origin) at 0.49 uM relative to control
[25] = biological target: MAP/microtubule affinity-regulating kinase 3 (Homo sapiens) (UniProt P27448); assay: Inhibition of c-TAK1 (unknown origin) at 0.49 uM relative to control
[26] = biological target: Vascular endothelial growth factor receptor 2 (Homo sapiens) (UniProt P35968); assay: Inhibition of KDR (unknown origin) at 0.49 uM relative to control

Sequence of Protein kinase C theta type (Homo sapiens) (Q04759 whole entry, looked up): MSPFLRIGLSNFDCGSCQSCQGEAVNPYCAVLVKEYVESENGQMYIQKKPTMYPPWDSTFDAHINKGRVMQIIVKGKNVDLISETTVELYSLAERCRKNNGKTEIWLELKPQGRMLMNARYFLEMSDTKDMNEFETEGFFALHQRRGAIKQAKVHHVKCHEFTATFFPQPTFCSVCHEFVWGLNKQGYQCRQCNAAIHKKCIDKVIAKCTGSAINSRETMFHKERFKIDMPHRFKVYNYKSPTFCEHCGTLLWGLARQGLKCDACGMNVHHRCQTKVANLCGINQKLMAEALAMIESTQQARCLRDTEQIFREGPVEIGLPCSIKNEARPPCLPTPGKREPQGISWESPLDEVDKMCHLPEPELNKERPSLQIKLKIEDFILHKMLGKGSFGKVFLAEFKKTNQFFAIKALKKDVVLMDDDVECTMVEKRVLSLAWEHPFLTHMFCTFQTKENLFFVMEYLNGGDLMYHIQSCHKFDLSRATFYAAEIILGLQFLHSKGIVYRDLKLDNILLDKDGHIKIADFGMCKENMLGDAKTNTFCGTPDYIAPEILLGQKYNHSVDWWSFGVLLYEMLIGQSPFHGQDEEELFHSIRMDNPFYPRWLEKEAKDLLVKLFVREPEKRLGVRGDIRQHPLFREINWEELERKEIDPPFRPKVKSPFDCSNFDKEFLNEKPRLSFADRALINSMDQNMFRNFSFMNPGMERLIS
Sequence of Ephrin type-B receptor 3 (Homo sapiens) (P54753 whole entry, canonical isoform): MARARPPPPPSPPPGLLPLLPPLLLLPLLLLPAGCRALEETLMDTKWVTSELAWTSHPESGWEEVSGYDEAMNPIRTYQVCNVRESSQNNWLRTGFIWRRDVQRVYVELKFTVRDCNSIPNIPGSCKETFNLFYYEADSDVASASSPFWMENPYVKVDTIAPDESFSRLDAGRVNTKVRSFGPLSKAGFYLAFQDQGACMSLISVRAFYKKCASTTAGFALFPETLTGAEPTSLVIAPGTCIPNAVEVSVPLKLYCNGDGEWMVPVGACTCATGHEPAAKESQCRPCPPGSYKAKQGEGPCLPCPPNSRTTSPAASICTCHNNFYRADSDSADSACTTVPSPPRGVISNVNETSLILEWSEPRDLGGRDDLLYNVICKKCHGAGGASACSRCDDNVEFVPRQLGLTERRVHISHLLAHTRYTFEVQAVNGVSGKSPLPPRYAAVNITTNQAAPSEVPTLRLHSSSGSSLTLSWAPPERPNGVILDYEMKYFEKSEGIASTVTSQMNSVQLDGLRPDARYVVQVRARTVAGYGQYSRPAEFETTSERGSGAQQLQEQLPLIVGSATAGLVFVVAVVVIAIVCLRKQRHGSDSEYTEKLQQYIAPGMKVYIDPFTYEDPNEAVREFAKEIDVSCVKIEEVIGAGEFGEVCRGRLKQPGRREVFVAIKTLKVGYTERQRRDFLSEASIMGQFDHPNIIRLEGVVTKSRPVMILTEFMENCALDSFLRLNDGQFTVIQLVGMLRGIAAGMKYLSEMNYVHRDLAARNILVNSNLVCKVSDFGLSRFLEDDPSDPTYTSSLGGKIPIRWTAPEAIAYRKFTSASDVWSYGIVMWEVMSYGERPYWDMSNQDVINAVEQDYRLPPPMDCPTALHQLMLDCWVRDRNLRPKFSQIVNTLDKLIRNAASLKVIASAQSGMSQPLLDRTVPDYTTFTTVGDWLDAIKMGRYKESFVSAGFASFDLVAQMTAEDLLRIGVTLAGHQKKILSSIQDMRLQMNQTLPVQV
Sequence of Protein kinase C iota type (Homo sapiens) (P41743 whole entry): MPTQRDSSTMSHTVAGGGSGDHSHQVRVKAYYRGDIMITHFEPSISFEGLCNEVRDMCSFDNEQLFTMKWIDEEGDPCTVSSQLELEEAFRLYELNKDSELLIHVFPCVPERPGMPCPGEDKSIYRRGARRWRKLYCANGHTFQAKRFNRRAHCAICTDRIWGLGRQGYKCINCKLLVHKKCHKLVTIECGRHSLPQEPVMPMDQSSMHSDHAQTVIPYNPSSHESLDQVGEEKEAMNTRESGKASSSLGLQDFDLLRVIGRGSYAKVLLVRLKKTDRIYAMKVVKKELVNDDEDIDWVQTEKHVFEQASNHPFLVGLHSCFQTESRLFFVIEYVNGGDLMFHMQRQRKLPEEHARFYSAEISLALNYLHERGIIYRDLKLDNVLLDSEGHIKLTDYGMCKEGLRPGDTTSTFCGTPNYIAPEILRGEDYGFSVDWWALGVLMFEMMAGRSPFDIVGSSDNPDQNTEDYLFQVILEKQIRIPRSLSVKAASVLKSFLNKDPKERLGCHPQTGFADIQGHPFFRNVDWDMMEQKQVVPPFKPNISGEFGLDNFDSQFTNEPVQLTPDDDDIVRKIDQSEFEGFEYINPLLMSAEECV
Sequence of Tyrosine-protein kinase Fyn (Homo sapiens) (P06241 2-537 limits assumed): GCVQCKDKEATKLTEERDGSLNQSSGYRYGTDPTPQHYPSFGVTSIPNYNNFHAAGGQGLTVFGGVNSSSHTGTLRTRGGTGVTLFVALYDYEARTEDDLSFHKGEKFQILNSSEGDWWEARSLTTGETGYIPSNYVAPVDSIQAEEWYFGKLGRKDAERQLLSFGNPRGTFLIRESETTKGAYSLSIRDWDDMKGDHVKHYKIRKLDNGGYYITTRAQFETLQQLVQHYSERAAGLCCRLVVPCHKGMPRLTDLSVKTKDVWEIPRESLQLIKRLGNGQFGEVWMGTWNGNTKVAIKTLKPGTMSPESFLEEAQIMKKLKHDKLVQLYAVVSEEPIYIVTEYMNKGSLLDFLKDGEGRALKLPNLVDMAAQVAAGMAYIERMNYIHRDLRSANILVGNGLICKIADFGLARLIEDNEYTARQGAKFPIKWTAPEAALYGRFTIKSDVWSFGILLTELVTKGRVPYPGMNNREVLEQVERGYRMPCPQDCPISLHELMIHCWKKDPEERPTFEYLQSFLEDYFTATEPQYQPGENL
Sequence of Serine/threonine-protein kinase MARK1 (Homo sapiens) (Q9P0L2 whole entry, looked up, canonical isoform): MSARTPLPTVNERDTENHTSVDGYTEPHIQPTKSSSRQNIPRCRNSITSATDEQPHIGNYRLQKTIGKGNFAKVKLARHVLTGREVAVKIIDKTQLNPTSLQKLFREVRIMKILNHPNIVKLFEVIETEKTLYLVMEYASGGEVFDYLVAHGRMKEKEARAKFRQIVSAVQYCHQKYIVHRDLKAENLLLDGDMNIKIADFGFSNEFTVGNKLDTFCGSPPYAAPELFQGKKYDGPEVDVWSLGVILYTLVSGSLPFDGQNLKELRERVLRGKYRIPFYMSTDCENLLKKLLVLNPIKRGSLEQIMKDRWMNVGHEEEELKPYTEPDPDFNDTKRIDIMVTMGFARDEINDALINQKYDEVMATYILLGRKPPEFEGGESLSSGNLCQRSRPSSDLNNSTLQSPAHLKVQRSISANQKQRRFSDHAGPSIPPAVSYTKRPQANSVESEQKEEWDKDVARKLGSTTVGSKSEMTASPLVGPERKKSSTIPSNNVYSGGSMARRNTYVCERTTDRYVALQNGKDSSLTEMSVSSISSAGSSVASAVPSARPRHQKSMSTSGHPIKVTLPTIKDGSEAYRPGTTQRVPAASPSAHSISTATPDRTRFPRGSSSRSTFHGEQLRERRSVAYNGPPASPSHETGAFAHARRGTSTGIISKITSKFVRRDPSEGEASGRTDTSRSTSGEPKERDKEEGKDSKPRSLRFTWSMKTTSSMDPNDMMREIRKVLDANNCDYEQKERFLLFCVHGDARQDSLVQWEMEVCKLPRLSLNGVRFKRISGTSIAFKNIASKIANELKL
Sequence of Serine/threonine-protein kinase Chk2 (Homo sapiens) (O96017 whole entry): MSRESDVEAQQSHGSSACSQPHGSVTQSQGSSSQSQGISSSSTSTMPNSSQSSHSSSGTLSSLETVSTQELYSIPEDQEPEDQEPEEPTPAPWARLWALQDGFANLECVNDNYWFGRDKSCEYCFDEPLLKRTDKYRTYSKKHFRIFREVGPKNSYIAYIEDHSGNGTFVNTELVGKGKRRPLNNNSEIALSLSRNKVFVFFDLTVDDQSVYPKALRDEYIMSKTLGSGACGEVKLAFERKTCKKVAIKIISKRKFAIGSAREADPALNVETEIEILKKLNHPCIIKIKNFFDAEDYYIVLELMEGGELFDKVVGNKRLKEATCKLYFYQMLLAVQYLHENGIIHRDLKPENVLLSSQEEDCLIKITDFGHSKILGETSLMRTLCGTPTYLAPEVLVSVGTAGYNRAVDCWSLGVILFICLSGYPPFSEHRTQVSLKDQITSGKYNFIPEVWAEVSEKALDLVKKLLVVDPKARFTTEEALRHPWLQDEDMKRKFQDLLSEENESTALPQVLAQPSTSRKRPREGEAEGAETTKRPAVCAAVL

inhibition [1]: 0.7%
inhibition [2]: 5.7%
inhibition [3]: 2.7%
inhibition [4]: -4.3%
inhibition [5]: 3.3%
SMILES: COC(=O)Nc1noc2cc(-c3c(-c4ccccn4)n[nH]c3C)ccc12

inhibition [6]: 2.3%
inhibition [7]: -1%
inhibition [8]: 18.7%
inhibition [9]: 8%
inhibition [10]: 5.3%
inhibition [11]: 3%
inhibition [12]: 1.3%
inhibition [13]: 8%
inhibition [14]: 2.7%
SMILES: Cc1n[nH]c(C)c1-c1ccc2c(NC(=O)c3ccc(N4CCN(C)CC4)cc3)n[nH]c2c1

inhibition [15]: 0.7%
inhibition [16]: 1%
inhibition [17]: -2.3%
inhibition [18]: 9.3%
inhibition [19]: 4.3%
inhibition (Homo sapiens): -5.3%
inhibition [20]: -1%
inhibition [21]: 4%
inhibition [22]: 6%
inhibition [23]: 0%
inhibition [24]: -1%
inhibition [25]: 6%
inhibition [26]: 5%
SMILES: Cc1[nH]nc(C2CC2)c1-c1ccc2c(NC(=O)C3CC3)noc2c1
